Experimental data from PubChem BioAssay AID328 (DTP/NCI, 2004).
Several values for one entry are separate records, joined by “and”; a condition that tells them apart may be missing. Identical values can stand only once. Inconclusive results and toxic doses are left out.

System: BDF1 mice, P388 leukemia ip, median survival T/C
Experiment: NCI In Vivo Anticancer Drug Screen. Data for tumor model P388 Leukemia (intraperitoneal) in B6D2F1 (BDF1) mice
Conditions: endpoint: median survival time, higher = longer survival
Summary of the method: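 In tumour-bearing mice, survival after compound treatment is set against the vehicle group and given as a quotient.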

[1] = dose: 12.5 mg/kg/injection, schedule: Q01DX009 (ip), vehicle: water
[2] = dose: 25.0 mg/kg/injection, schedule: Q01DX009 (ip), vehicle: water
[3] = dose: 50.0 mg/kg/injection, schedule: Q01DX009 (ip), vehicle: water
[4] = dose: 200.0 mg/kg/injection, schedule: Q04DX003 (ip), vehicle: water
[5] = dose: 50.0 mg/kg/injection, schedule: Q01DX009 (ip), vehicle: saline with Tween-80
[6] = dose: 50.0 mg/kg/injection, schedule: Q04DX003 (ip), vehicle: saline with Tween-80
[7] = dose: 100.0 mg/kg/injection, schedule: Q01DX009 (ip), vehicle: saline with Tween-80
[8] = dose: 100.0 mg/kg/injection, schedule: Q04DX003 (ip), vehicle: saline with Tween-80
[9] = dose: 200.0 mg/kg/injection, schedule: Q04DX003 (ip), vehicle: saline with Tween-80
[10] = dose: 200.0 mg/kg/injection, schedule: Q01DX009 (ip), vehicle: saline with Tween-80
[11] = dose: 12.5 mg/kg/injection, schedule: Q01DX009 (ip), vehicle: saline with Tween-80
[12] = dose: 25.0 mg/kg/injection, schedule: Q01DX009 (ip), vehicle: saline with Tween-80
[13] = dose: 100.0 mg/kg/injection, schedule: Q04DX002 (ip), vehicle: saline with Tween-80
[14] = dose: 200.0 mg/kg/injection, schedule: Q04DX002 (ip), vehicle: saline with Tween-80

In the case of `CN(C(=N)N)c1ccc(C(=O)Oc2ccc([N+](=O)[O-])cc2)cc1`, the T/C [1] is reported as 100 % of control, the T/C (dose: 18.75 mg/kg/injection, schedule: Q04DX003 (ip), vehicle: water) is reported as 104 % of control and the T/C [2] is reported as 100 % of control. For the same molecule, the T/C (dose: 37.5 mg/kg/injection, schedule: Q04DX003 (ip), vehicle: water) was 109 % of control, the T/C [3] was 108 % of control and the T/C (dose: 75.0 mg/kg/injection, schedule: Q04DX003 (ip), vehicle: water) was 104 % of control and 117 % of control. For the same molecule, the T/C (dose: 100.0 mg/kg/injection, schedule: Q01DX009 (ip), vehicle: water) was 104 % of control, the T/C (dose: 100.0 mg/kg/injection, schedule: Q04DX003 (ip), vehicle: water) was 99 % of control and the T/C (dose: 150.0 mg/kg/injection, schedule: Q04DX003 (ip), vehicle: water) was 117 % of control. For the same molecule, the T/C [4] was 89 % of control and the T/C (dose: 400.0 mg/kg/injection, schedule: Q04DX003 (ip), vehicle: water) was 89 % of control.

For `CC1(C)N=C(N)N=C(N)N1c1ccc(OCCOc2ccc(S(=O)(=O)F)cc2)c(Cl)c1`, the T/C (dose: 12.5 mg/kg/injection, schedule: Q04DX003 (ip), vehicle: saline with Tween-80) was 158 % of control, the T/C (dose: 13.0 mg/kg/injection, schedule: Q04DX003 (ip), vehicle: saline with Tween-80) was 160 % of control and the T/C (dose: 20.0 mg/kg/injection, schedule: Q04DX003 (ip), vehicle: saline with Tween-80) was 185 % of control. For the same molecule, the T/C (dose: 25.0 mg/kg/injection, schedule: Q04DX003 (ip), vehicle: saline with Tween-80) was 170 % of control, the T/C (dose: 30.0 mg/kg/injection, schedule: Q04DX003 (ip), vehicle: saline with Tween-80) was 185 % of control and the T/C (dose: 33.0 mg/kg/injection, schedule: Q01DX009 (ip), vehicle: Klucel (hydroxypropylcellulose) (HPC)) was 227 % of control. For the same molecule, the T/C (dose: 50.0 mg/kg/injection, schedule: Q01DX009 (ip), vehicle: Klucel (hydroxypropylcellulose) (HPC)) was 154 % of control, the T/C [5] was 268 % of control and the T/C [6] was 154 % of control and 162 % of control. For the same molecule, the T/C (dose: 66.0 mg/kg/injection, schedule: Q04DX003 (ip), vehicle: saline with Tween-80) was 180 % of control, the T/C (dose: 75.0 mg/kg/injection, schedule: Q01DX009 (ip), vehicle: Klucel (hydroxypropylcellulose) (HPC)) was 163 % of control and the T/C (dose: 75.0 mg/kg/injection, schedule: Q04DX003 (ip), vehicle: saline with Tween-80) was 170 % of control. The T/C [7] was 90 % of control, the T/C [8] was 180 % of control and the T/C (dose: 150.0 mg/kg/injection, schedule: Q04DX003 (ip), vehicle: saline with Tween-80) was 232 % of control. For the same molecule, the T/C [9] was 108 % of control.

For `Cc1ccc(-n2c(O)c(C=N)c(=O)n(-c3ccc(C)cc3)c2=O)cc1`, the T/C [7] was 104 % of control, the T/C [10] was 104 % of control and the T/C (dose: 400.0 mg/kg/injection, schedule: Q01DX009 (ip), vehicle: saline with Tween-80) was 95 % of control.

For `CSc1ccc(NC(=O)CCl)cc1`, the T/C [11] was 107 % of control, the T/C [12] was 105 % of control and the T/C [5] was 106 % of control.

With `N=c1nc2n(cc1F)[C@@H]1O[C@H](CO)[C@@H](O)[C@@H]1O2` the T/C (dose: 64.0 mg/kg/injection, schedule: Q01DX005 (ip), vehicle: saline) was 153 % of control, the T/C (dose: 128.0 mg/kg/injection, schedule: Q01DX005 (ip), vehicle: saline) was 171 % of control and the T/C (dose: 256.0 mg/kg/injection, schedule: Q01DX005 (ip), vehicle: saline) was 209 % of control. For the same molecule, the T/C (dose: 512.0 mg/kg/injection, schedule: Q01DX005 (ip), vehicle: saline) was 276 % of control and the T/C (dose: 768.0 mg/kg/injection, schedule: Q01DX005 (ip), vehicle: saline) was 86 % of control.

In the case of `Fc1ccc(CSc2ncnc3c2ncn3C2CCCCO2)cc1` (stereo not drawn), the T/C (dose: 100.0 mg/kg/injection, schedule: Q04DX003 (ip), vehicle: other) is reported as 100 % of control, the T/C (dose: 200.0 mg/kg/injection, schedule: Q01DX009 (ip), vehicle: Klucel (hydroxypropylcellulose) (HPC)) is reported as 100 % of control and the T/C (dose: 200.0 mg/kg/injection, schedule: Q04DX003 (ip), vehicle: other) is reported as 100 % of control. The T/C (dose: 400.0 mg/kg/injection, schedule: Q04DX003 (ip), vehicle: other) was 105 % of control.

In the case of `O=C1CC2OCC=C3CN4CCC56c7ccccc7N1C5C2C3CC46` (stereo not drawn) (tested in a mixture with another compound), the T/C (dose: 0.5 mg/kg/injection, schedule: Q04DX003 (ip), vehicle: saline + alcohol) is reported as 95 % of control and the T/C (dose: 1.0 mg/kg/injection, schedule: Q04DX003 (ip), vehicle: saline + alcohol) is reported as 110 % of control.

In the case of `C/C(=N\O)c1ccc2ccc3ccccc3c2c1`, the T/C (dose: 50.0 mg/kg/injection, schedule: Q04DX003 (ip), vehicle: saline sonified) is reported as 104 % of control, the T/C (dose: 100.0 mg/kg/injection, schedule: Q04DX003 (ip), vehicle: saline sonified) is reported as 104 % of control and the T/C (dose: 200.0 mg/kg/injection, schedule: Q04DX003 (ip), vehicle: saline sonified) is reported as 100 % of control.

For `Cc1nc2c(=O)n(C)c(=O)n(C)c2n1C`, the T/C [6] was 100 % of control, the T/C [8] was 90 % of control and the T/C [9] was 100 % of control.

`CC(=O)N1c2ccccc2Sc2cc(C(O)(C(F)(F)F)C(F)(F)F)ccc21` was tested, and the T/C [12] was 86 % of control, the T/C [5] was 90 % of control and the T/C [7] was 90 % of control.

For `CC(=O)[O][Hg][c]1c(N)c(C)cc(C)c1F`, the T/C (dose: 0.78 mg/kg/injection, schedule: Q01DX009 (ip), vehicle: saline) was 93 % of control, the T/C (dose: 1.56 mg/kg/injection, schedule: Q01DX009 (ip), vehicle: saline) was 95 % of control and the T/C (dose: 3.12 mg/kg/injection, schedule: Q01DX009 (ip), vehicle: saline) was 93 % of control. For the same molecule, the T/C (dose: 6.25 mg/kg/injection, schedule: Q01DX009 (ip), vehicle: saline) was 95 % of control and the T/C (dose: 12.5 mg/kg/injection, schedule: Q01DX009 (ip), vehicle: saline) was 95 % of control.

For `COc1ccc(C2=NNC(=O)OC2c2ccccc2)cc1` (stereo not drawn), the T/C [12] was 92 % of control and 102 % of control, the T/C [5] was 91 % of control and 96 % of control and 99 % of control and the T/C [7] was 100 % of control and 110 % of control. The T/C [10] was 91 % of control and 102 % of control and 105 % of control.

With `c1ccc(-c2cc[s+]s2)cc1` the T/C (dose: 3.12 mg/kg/injection, schedule: Q01DX009 (ip), vehicle: water) was 110 % of control and 114 % of control, the T/C (dose: 6.25 mg/kg/injection, schedule: Q01DX009 (ip), vehicle: water) was 94 % of control and 103 % of control and 120 % of control and the T/C [1] was 100 % of control and 103 % of control and 123 % of control. For the same molecule, the T/C (dose: 12.5 mg/kg/injection, schedule: Q04DX003 (ip), vehicle: water) was 116 % of control, the T/C [2] was 100 % of control and the T/C (dose: 25.0 mg/kg/injection, schedule: Q04DX003 (ip), vehicle: water) was 104 % of control. For the same molecule, the T/C [3] was 92 % of control and 116 % of control and the T/C [4] was 101 % of control.

In the case of `c1cc2c(cc1C1SCSCS1)OCO2`, the T/C (dose: 100.0 mg/kg/injection, schedule: Q04DX003 (ip), vehicle: Klucel (hydroxypropylcellulose) (HPC)) is reported as 90 % of control, the T/C (dose: 200.0 mg/kg/injection, schedule: Q04DX003 (ip), vehicle: Klucel (hydroxypropylcellulose) (HPC)) is reported as 100 % of control and the T/C (dose: 400.0 mg/kg/injection, schedule: Q04DX003 (ip), vehicle: Klucel (hydroxypropylcellulose) (HPC)) is reported as 100 % of control.

With `COc1ccc(CCC(C(=O)O)c2ccc(OC)c(OC)c2)cc1OC` (stereo not drawn) the T/C (dose: 45.0 mg/kg/injection, schedule: Q01DX009 (ip), vehicle: Klucel (hydroxypropylcellulose) (HPC)) was 95 % of control, the T/C (dose: 65.0 mg/kg/injection, schedule: Q01DX009 (ip), vehicle: Klucel (hydroxypropylcellulose) (HPC)) was 90 % of control and the T/C (dose: 100.0 mg/kg/injection, schedule: Q01DX009 (ip), vehicle: Klucel (hydroxypropylcellulose) (HPC)) was 95 % of control. For the same molecule, the T/C (dose: 150.0 mg/kg/injection, schedule: Q01DX009 (ip), vehicle: Klucel (hydroxypropylcellulose) (HPC)) was 90 % of control.

In the case of `CC(C)N(c1c2c(oc(=O)c1Cl)CCSC2)C(C)C`, the T/C [13] is reported as 99 % of control, the T/C [14] is reported as 101 % of control and the T/C (dose: 400.0 mg/kg/injection, schedule: Q04DX002 (ip), vehicle: saline with Tween-80) is reported as 96 % of control.

`S=P(N1CCCC1)(N1CC1)N1CC1` was tested, and the T/C (dose: 5.0 mg/kg/injection, schedule: Q01DX009 (ip), vehicle: saline with Tween-80) was 158 % of control and the T/C (dose: 10.0 mg/kg/injection, schedule: Q01DX009 (ip), vehicle: saline with Tween-80) was 104 % of control.

With `C1CN2CCC1CC2` the T/C [11] was 107 % of control, the T/C (dose: 22.0 mg/kg/injection, schedule: Q01DX009 (ip), vehicle: saline with Tween-80) was 101 % of control and the T/C [12] was 119 % of control. For the same molecule, the T/C (dose: 33.0 mg/kg/injection, schedule: Q01DX009 (ip), vehicle: saline with Tween-80) was 122 % of control.

`CCn1c2ccc(N)cc2c2c3[nH]c(=O)c4cccn4c3ccc21` was tested, and the T/C [13] was 100 % of control and the T/C [14] was 92 % of control.
